Laboratory results published in patent US20130109698A1, “Small Molecule Inhibitors of Functions of the HIV-1 Matrix Protein” (priority 2010, published 2013).

Tests used:
influenza H1N1 = assay: Antiviral spectrum: cytopathic effect assay; format: cell-based; details: influenza H1N1, up to 100 μM
SIV MAC251 = assay: Antiviral efficacy in PBMCs, reverse transcriptase activity; format: cell-based; details: for IC50 / IC90: Simian immunodeficiency virus, PBMC
yellow fever = format: cell-based; details: up to 100 μM
HIV-1 G3 Subtype G = assay: Anti-HIV efficacy in human PBMCs; format: cell-based; details: for Antiviral index (TC50/IC50): G3 Subtype G; for IC50 / IC90: Human immunodeficiency virus 1, PBMC
Experimental: (§1) HIV human peripheral blood mononuclear cell (PBMC) assays were performed as described previously (Lanier et al., 2010, Antimicrob Agents Chemother 54:2901-2909 and Ptak et al., 2008, Antimicrob Agents Chemother 52:1302-1317). Briefly, fresh PBMCs, seronegative for HIV and hepatitis B virus (HBV), were isolated from blood samples of the screened donors (Biological Specialty Corporation, Colmar, Pa.) by using lymphocyte separation medium (LSM; density, 1.078±0.002 g/ml; Cellgro; Mediatech, Inc.) by following the manufacturer's instructions. Cells were stimulated by incubation in 4 μg/mL phytohemagglutinin (PHA; Sigma) for 48 to 72 h. Mitogenic stimulation was maintained by the addition of 20 U/mL recombinant human interleukin-2 (rhIL-2; R&D Systems, Inc.) to the culture medium. PHA-stimulated PBMCs from at least two donors were pooled, diluted in fresh medium, and added to 96-well plates at 5×10^4 cells/well. Cells were infected (final multiplicity of infection [MOI] of ≅0.1) in the presence of nine different concentrations of test compounds (triplicate wells/concentration) and incubated for 7 days. To determine the level of virus inhibition, cell-free supernatant samples were collected for analysis of reverse transcriptase activity (Buckheit et al., 1991, AIDS Res Hum Retroviruses 7:295-302). Following removal of supernatant samples, compound cytotoxicity was measured by the addition of 3-(4,5-dimethylthiazol-2-yl)-5-(3-carboxymethoxy-phenyl)-2-(4-sulfophenyl)-2H-tetrazolium (MTS; CellTiter 96 reagent; Promega) by following the manufacturer's instructions.

HIV-1 92UG024 Subtype D = assay: Anti-HIV efficacy in human PBMCs; format: cell-based; details: for IC50 / IC90: Human immunodeficiency virus 1, PBMC, PBMCs
Experimental: as §1

HIV-1 BCF02 Group O = assay: Anti-HIV efficacy in human PBMCs; format: cell-based; details: for Antiviral index (TC50/IC50) / IC50 / IC90: BCF02 Group O; for IC50 / IC90: Human immunodeficiency virus 1, PBMC
Experimental: as §1

HIV-1 89BZ167 Subtype B = assay: Anti-HIV efficacy in human PBMCs; format: cell-based; details: for IC50 / IC90: Human immunodeficiency virus 1, PBMC, PBMCs
Experimental: as §1

HIV-1 CMU08 Subtype E = assay: Anti-HIV efficacy in human PBMCs; format: cell-based; details: for IC50 / IC90: Human immunodeficiency virus 1, PBMC, PBMCs
Experimental: as §1

HIV-1 92BR025 Subtype C = assay: Anti-HIV efficacy in human PBMCs; format: cell-based; details: for IC50 / IC90: Human immunodeficiency virus 1, PBMC, PBMCs
Experimental: as §1

HIV-1 93BR020 Subtype F = assay: Anti-HIV efficacy in human PBMCs; format: cell-based; details: for IC50 / IC90: Human immunodeficiency virus 1, PBMC, PBMCs
Experimental: as §1

HIV-1 92UG031 Subtype A = assay: Anti-HIV efficacy in human PBMCs; format: cell-based; details: for IC50 / IC90: Human immunodeficiency virus 1, PBMC, PBMCs
Experimental: as §1

[1] = system: luciferase-reporter HIV-1 NL4-3 pseudotyped with HxBc2 envelope produced in 293T cells; assay: microbe, parasite or virus in culture
Japanese encephalitis = assay: Antiviral spectrum: cytopathic effect assay; format: cell-based
[2] = Compound cytotoxicity in PBMCs (MTS); format: cell-based, human; details: human; Table 4 study, PBMCs; read-out: TC50
Experimental: as §1

Dengue serotypes 1-4 = assay: Antiviral spectrum: cytopathic effect assay; format: cell-based
Chikungunya = assay: Antiviral spectrum: cytopathic effect assay; format: cell-based
HIV-1 93IN101 = assay: Anti-HIV efficacy in human PBMCs, reverse transcriptase activity; format: cell-based; details: HIV-1 93IN101, PBMCs; for IC50 / IC90: Human immunodeficiency virus 1, PBMC
Experimental: as §1

HIV-1 92BR030 = assay: as above; format: cell-based; details: HIV-1 92BR030, PBMCs; for IC50 / IC90: Human immunodeficiency virus 1, PBMC
Experimental: as §1

| Compound | inhibitory effects on replication (influenza H1N1) | Antiviral index (TC50/IC50) (SIV MAC251) | IC50 (SIV MAC251) [µM] | IC90 (SIV MAC251) [µM] | inhibitory effects on replication (yellow fever) | Antiviral index (TC50/IC50) (HIV-1 G3 Subtype G) | IC50 (HIV-1 G3 Subtype G) [µM] | IC90 (HIV-1 G3 Subtype G) [µM] | Antiviral index (TC50/IC50) (HIV-1 92UG024 Subtype D) | IC50 (HIV-1 92UG024 Subtype D) [µM] | IC90 (HIV-1 92UG024 Subtype D) [µM] | IC50 (HIV-1 BCF02 Group O; PBMCs) [µM] | IC90 (HIV-1 BCF02 Group O; PBMCs) [µM] | Antiviral index (TC50/IC50) (HIV-1 89BZ167 Subtype B) | IC50 (HIV-1 89BZ167 Subtype B) [µM] | IC90 (HIV-1 89BZ167 Subtype B) [µM] | Antiviral index (TC50/IC50) (HIV-1 CMU08 Subtype E) | IC50 (HIV-1 CMU08 Subtype E) [µM] | IC90 (HIV-1 CMU08 Subtype E) [µM] | Antiviral index (TC50/IC50) (HIV-1 92BR025 Subtype C) | also measured |
| --- | --- | --- | --- | --- | --- | --- | --- | --- | --- | --- | --- | --- | --- | --- | --- | --- | --- | --- | --- | --- | --- |
| O=C(CNC(=O)COc1ccccc1)NCc1ccc(C(=O)N2CCCCC2)cc1 [CMPD-14, N-(2-oxo-2-((4-(piperidine-1-carbonyl)benzyl)amino)ethyl)-2-phenoxyacetamide] | no inhibitory effects | > 5.85 | 17.1 | 44.2 | no inhibitory effects | >4.88 | 20.5 | 29.2 | >5.41 | 18.5 | 29.5 | 21.9 | 45 | >4.66 | 21.4 | 40.7 | >6.27 | 16 | 59.5 | >4.24 | Antiviral index (TC50/IC50) (HIV-1 BCF02 Group O): >4.57; IC50 (HIV-1 92BR025 Subtype C): 23.6 µM; IC90 (HIV-1 92BR025 Subtype C): 96.6 µM; Antiviral index (TC50/IC50) (HIV-1 93BR020 Subtype F): >4.93; IC50 (HIV-1 93BR020 Subtype F): 20.3 µM; IC90 (HIV-1 93BR020 Subtype F): 32.6 µM; Antiviral index (TC50/IC50) (HIV-1 92UG031 Subtype A): >5.40; IC50 (HIV-1 92UG031 Subtype A): 18.5 µM; IC90 (HIV-1 92UG031 Subtype A): 42.2 µM; IC50 [1]: 95 µM; inhibitory effects on replication (Japanese encephalitis): no inhibitory effects; CC50 at 7 days [2]: > 100 µM; inhibitory effects on replication (Dengue serotypes 1-4): no inhibitory effects; inhibitory effects on replication (Chikungunya): no inhibitory effects; Antiviral index (TC50/IC50) (HIV-1 93IN101): > 5.56; IC50 (HIV-1 93IN101): 18 µM; IC90 (HIV-1 93IN101): 62.1 µM; Antiviral index (TC50/IC50) (HIV-1 92BR030): > 4.51; IC50 (HIV-1 92BR030): 22.2 µM; IC90 (HIV-1 92BR030): 68.6 µM |
| CCOc1ccc(NC(=O)Cc2cn3ccsc3n2)cc1S(=O)(=O)N1CCCCC1 [CMPD-18, N-(4-ethoxy-3-(piperidin-1-ylsulfonyl)phenyl)-2-(imidazo[2,1-b]thiazol-6-yl)acetamide] | no inhibitory effects | 1.06 | 87.1 | > 100 | no inhibitory effects | >10.9 | 5.73 | 21 | >6.02 | 10.4 | 25.9 | 27.2 | 75.6 | >2.94 | 21.3 | 71.8 | >5.00 | 15.9 | 95 | >2.79 | Antiviral index (TC50/IC50) (HIV-1 BCF02 Group O): >2.30; IC50 (HIV-1 92BR025 Subtype C): 22.4 µM; IC90 (HIV-1 92BR025 Subtype C): 75 µM; Antiviral index (TC50/IC50) (HIV-1 93BR020 Subtype F): >3.39; IC50 (HIV-1 93BR020 Subtype F): 18.5 µM; IC90 (HIV-1 93BR020 Subtype F): 54.1 µM; Antiviral index (TC50/IC50) (HIV-1 92UG031 Subtype A): >3.98; IC50 (HIV-1 92UG031 Subtype A): 15.8 µM; IC90 (HIV-1 92UG031 Subtype A): 64.7 µM; IC50 [1]: > 100 µM; inhibitory effects on replication (Japanese encephalitis): no inhibitory effects; CC50 at 7 days [2]: 92.3 µM; inhibitory effects on replication (Dengue serotypes 1-4): no inhibitory effects; inhibitory effects on replication (Chikungunya): no inhibitory effects; Antiviral index (TC50/IC50) (HIV-1 93IN101): 3.00; IC50 (HIV-1 93IN101): 30.8 µM; IC90 (HIV-1 93IN101): 85.2 µM; Antiviral index (TC50/IC50) (HIV-1 92BR030): 3.95; IC50 (HIV-1 92BR030): 23.4 µM; IC90 (HIV-1 92BR030): 94 µM |
| Cc1ccc(NC(=O)CN2CCN(Cc3nc(-c4ccc(F)cc4)no3)CC2)cc1 [CMPD-7, 2-(4-((3-(4-fluorophenyl)-1,2,4-oxadiazol-5-yl)methyl)piperazin-1-yl)-N-(p-tolyl)acetamide] | no inhibitory effects | > 10.55 | 9.48 | 31 | no inhibitory effects | >9.36 | 10.7 | 30.2 | >11.3 | 8.88 | 35.2 | > 100 | > 100 | >6.97 | 14.4 | > 100 | >10.4 | 9.64 | 99.7 | >9.51 | activity against the group O isolate HIV-1BCF02, in words (HIV-1 BCF02 Group O; over the concentrations tested, PBMCs): no activity; IC50 (HIV-1 92BR025 Subtype C): 10.5 µM; IC90 (HIV-1 92BR025 Subtype C): > 100 µM; Antiviral index (TC50/IC50) (HIV-1 93BR020 Subtype F): >6.42; IC50 (HIV-1 93BR020 Subtype F): 15.6 µM; IC90 (HIV-1 93BR020 Subtype F): > 100 µM; Antiviral index (TC50/IC50) (HIV-1 92UG031 Subtype A): >6.72; IC50 (HIV-1 92UG031 Subtype A): 14.9 µM; IC90 (HIV-1 92UG031 Subtype A): > 100 µM; IC50 [1]: 28 µM; inhibitory effects on replication (Japanese encephalitis): no inhibitory effects; CC50 at 7 days [2]: > 100 µM; inhibitory effects on replication (Dengue serotypes 1-4): no inhibitory effects; inhibitory effects on replication (Chikungunya): no inhibitory effects; Antiviral index (TC50/IC50) (HIV-1 93IN101): > 6.13; IC50 (HIV-1 93IN101): 16.3 µM; IC90 (HIV-1 93IN101): > 100 µM; Antiviral index (TC50/IC50) (HIV-1 92BR030): > 10.72; IC50 (HIV-1 92BR030): 9.33 µM; IC90 (HIV-1 92BR030): > 100 µM |
